Source: patent publication US7491825B2, “Basic non-peptide bradykinin antagonists and pharmaceutical compositions therefrom” (Menarini Ricerche S.p.A., priority 2002, dated 2009)
Where a name gives a salt, the structure may show the parent alone.

The compounds below were run against T1, human B2 receptor (Homo sapiens, UniProt P30411) (assay: binding to the human B2 receptor expressed in human fibroblasts W138). Conditions: not given.
T1 construct: human B2 receptor expressed in human fibroblasts W138; endogenous in cells; host or cells: human fibroblasts W138 (WI-38)
T1 sequence (P30411 1-391): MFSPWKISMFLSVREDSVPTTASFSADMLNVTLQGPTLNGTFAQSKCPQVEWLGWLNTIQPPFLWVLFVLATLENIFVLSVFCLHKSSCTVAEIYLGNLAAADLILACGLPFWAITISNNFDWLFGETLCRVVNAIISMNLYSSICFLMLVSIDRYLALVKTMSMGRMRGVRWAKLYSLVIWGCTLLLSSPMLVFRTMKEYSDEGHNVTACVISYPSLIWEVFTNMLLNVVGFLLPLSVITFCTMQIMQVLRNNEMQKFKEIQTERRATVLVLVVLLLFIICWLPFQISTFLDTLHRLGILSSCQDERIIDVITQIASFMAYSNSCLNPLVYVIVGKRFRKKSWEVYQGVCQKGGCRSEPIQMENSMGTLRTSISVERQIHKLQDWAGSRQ
Text: In the following the binding values are reported expressed as pKi.

Compound	Ki [nM]
Cc1ccc2cccc(OCc3c(Cl)ccc(S(=O)(=O)NC(C)(C)C(=O)N4CCN(C(=N)N)CC4)c3Cl)c2n1 [Example 20, 4-{2-[2,4-Dichloro-3-(2-methyl-quinolin-8-yloxymethyl)-benzenesulfonylamino]-2-methyl-propionyl}-piperazine-1-carboxamidine]	0.631
Cc1ccc2cccc(OCc3c(Cl)ccc(S(=O)(=O)NC(C)(C)C(=O)N4CCN(C(=O)CC5CCNCC5)CC4)c3Cl)c2n1 [Example 25, N-{2-[4-2-(Piperidin-4-yl-acetyl)-piperazin-1-yl]-1,1-dimethyl-2-oxo-ethyl}-2,4-dichloro-3-(2-methyl-8-quinolinoxymethyl)-benzenesulfonamide bis trifluoroacetate]	0.537
Cc1ccc2cccc(OCc3c(Cl)ccc(S(=O)(=O)NC(C)(C)C(=O)N4CCN(C(=N)NCCCN)CC4)c3Cl)c2n1 [Example 31, N-(3-Amino-propyl)-4-{2-[2,4-dichloro-3-(2-methyl-quinolin-8-yloxymethyl)-benzenesulfonylamino]-2-methyl-propionyl}-piperazine-1-carboxamidine tris trifluoroacetate]	0.398
Cc1cc(C)c2cccc(OCc3c(Cl)ccc(S(=O)(=O)NC4(C(=O)N5CCC(N6CCN(C(=O)[C@@H](N)CCCNC(=N)N)CC6)CC5)CCCC4)c3Cl)c2n1 [Example 38]	0.501
CCN=C(NCC)NCCC[C@H](N)C(=O)N1CCN(C(=O)C(C)(C)NS(=O)(=O)c2ccc(Cl)c(COc3cccc4ccc(C)nc34)c2Cl)CC1 [Example 41]	0.501
CCN=C(NCC)NCCCC[C@H](N)C(=O)N1CCN(C(=O)C2(NS(=O)(=O)c3ccc(Cl)c(COc4cccc5c(C)cc(C)nc45)c3Cl)CCCC2)CC1 [Example 43, (2S)—N-(1-{4-[2-Amino-6-(N′,N″-diethyl-guanidino)-hexanoyl]-piperazine-1-carbonyl}-cyclopentyl)-2,4-dichloro-3-(2,4-dimethyl-quinolin-8-yloxymethyl)-benzenesulfonamide]	0.398
CCN=C(NCC)NCCC[C@H](N)C(=O)N1CCN(C(=O)C2(NS(=O)(=O)c3ccc(Cl)c(COc4cccc5c(C)cc(C)nc45)c3Cl)CCCC2)CC1 [Example 44]	0.0794
Cc1cc(C)c2cccc(OCc3c(Cl)ccc(S(=O)(=O)NC(C)(C)C(=O)N4CCN(C(=O)[C@@H](N)CCCNC(=N)N)CC4)c3Cl)c2n1 [Example 48, N-[2-[4-(2-(S)-Amino-5-guanidino-pentanoyl)-piperazin-1-yl]-1,1-dimethyl-2-oxo-ethyl]-2,4-dichloro-3-(2,4-dimethyl-quinolin-8-yloxymethyl)-benzenesulfonamide]	0.631
Cc1ccc2cccc(OCc3c(Cl)ccc(S(=O)(=O)NC(C)(C)C(=O)N4CCN(C(=O)[C@H](N)CCCNC(=N)N)CC4)c3Cl)c2n1 [Example 51, N-[2-[4-(2-(R)-Amino-5-guanidino-pentanoyl)-piperazin-1-yl]-1,1-dimethyl-2-oxo-ethyl]-2,4-dichloro-3-(2-methyl-quinolin-8-yloxymethyl)-benzenesulfonamide]	0.398
Cc1cc(C)c2cccc(OCc3c(Cl)ccc(S(=O)(=O)NC4(C(=O)N5CCN(C(=O)[C@H](N)CCCCNC(=N)N)CC5)CCCC4)c3Cl)c2n1 [Example 64, N-[1-[4-(2-(R)-Amino-6-guanidino-hexanoyl)-piperazine-1-carbonyl]-cyclopentyl]-2,4-dichloro-3-(2,4-dimethyl-quinolin-8-yloxymethyl)-benzenesulfonamide tris trifluoroacetate]	0.631
CC[C@@](C)(NS(=O)(=O)c1ccc(Cl)c(COc2cccc3c(C)cc(C)nc23)c1Cl)C(=O)N1CCN(C(=O)C[C@@H](N)CCCNC(=N)N)CC1 [Example 70, (R)—N-[4-(3-(S)-Amino-6-guanidino-hexanoyl)-piperazine-1-carbonyl]-1-methyl-propyl]-2,4-dichloro-3-(2,4-dimethyl-quinolin-8-yloxymethyl)-benzenesulfonamide tris trifluoroacetate]	0.631

Same assay, conditions: human B2 receptor expressed in human fibroblasts W138

Compound	pKi
2,4-Dichloro-3-(2-methyl-quinolin-8-yloxymethyl)-benzenesulfinic acid (2-{4-[2-R-amino-5-(N′,N″-diethyl-guanidino)-pentanoyl]-piperazin-1-yl}-1,1-dimethyl-2-oxo-ethyl)-amide [Example 42]	9.4
2,4-Dichloro-3-(2-methyl-quinolin-8-yloxymethyl)-benzenesulfinic acid {2-[4-(2-guanidino-ethyl)-piperazin-1-yl]-1,1-dimethyl-2-oxo-ethyl}-amide [Example 40]	9.7
Cc1cc(C)c2cccc(OCc3c(Cl)ccc(S(=O)(=O)NC(C)(C)C(=O)N4CCN(C(=O)[C@@H](N)CCCCN(C)C)CC4)c3Cl)c2n1 [Example 45, N-[2-[4-(2-(S)-Amino-6-dimethylamino-hexanoyl)-piperazin-1-yl]-1,1-dimethyl-2-oxo-ethyl]-2,4-dichloro-3-(2,4-dimethyl-quinolin-8-yloxymethyl)-benzenesulfonamide]	9.2
Cc1cc(C)c2cccc(OCc3c(Cl)ccc(S(=O)(=O)N[C@H](C)C(C)C(=O)N4CCN(C(=O)CN5CCN(CCNC(=N)N)CC5)CC4)c3Cl)c2n1.O=C(O)C(F)(F)F.O=C(O)C(F)(F)F.O=C(O)C(F)(F)F.O=C(O)C(F)(F)F (stereo partly shown) [Example 71]	9.4
Cc1cc(C)c2cccc(OCc3c(Cl)ccc(S(=O)(=O)N[C@H](C)C(C)C(=O)N4CCN(C(=O)C[C@H](CCCNC(=N)N)NC(=N)N)CC4)c3Cl)c2n1.O=C(O)C(F)(F)F.O=C(O)C(F)(F)F.O=C(O)C(F)(F)F (stereo partly shown) [Example 73]	9.2
Cc1cc(C)c2cccc(OCc3c(Cl)ccc(S(=O)(=O)NC4(C(=O)N5CCN(C(=O)[C@@H](N)CCCC[N+](C)(C)C)CC5)CCCC4)c3Cl)c2n1 [Example 79, N-{1-[4-(2-(S)-Amino-6-trimethylammonium-hexanoyl)-piperazine-1-carbonyl]-cyclopentyl}-2,4-dichloro-3-(2,4-dimethyl-quinolin-8-yloxymethyl)-benzenesulfonamide tris trifluoroacetate]	9.2

Same assay, conditions: human B2 receptor expressed in human fibroblasts W138; read-out: pKi (converted)

Compound	Ki [nM]
Cc1ccc2cccc(OCc3c(Cl)ccc(S(=O)(=O)NC(C)(C)C(=O)N4CCN(C(=O)CNC5CCNCC5)CC4)c3Cl)c2n1 [Example 26, N-{2-[4-[N-(4-Piperidyl)glycyl]-piperazin-1-yl]-1,1-dimethyl-2-oxo-ethyl}-2,4-dichloro-3-(2-methyl-8-quinolinoxymethyl)-benzenesulfonamide tris trifluoroacetate]	0.501
Cc1ccc2cccc(OCc3c(Cl)ccc(S(=O)(=O)NC(C)(C)C(=O)N4CCN(C(=O)C[C@@H](N)CCCN(C)C)CC4)c3Cl)c2n1 [Example 29, N-{2-[4-(3-(S)-Amino-6-dimethylamino-hexanoyl)-piperazin-1-yl]-1,1-dimethyl-2-oxo-ethyl}-2,4-dichloro-3-(2-methyl-8-quinolinoxymethyl)-benzenesulfonamide tris trifluoroacetate]	0.631
Cc1ccc2cccc(OCc3c(Cl)ccc(S(=O)(=O)NC(C)(C)C(=O)N4CCN(C(=O)C[C@@H](N)CCCCN(C)C)CC4)c3Cl)c2n1 [Example 30, N-{2-[4-(3-(S)-Amino-7-dimethylamino-heptanoyl)-piperazin-1-yl]-1,1-dimethyl-2-oxo-ethyl}-2,4-dichloro-3-(2-methyl-8-quinolinoxymethyl)-benzenesulfonamide tris trifluoroacetate]	0.794
Cc1cc(C)c2cccc(OCc3c(Cl)ccc(S(=O)(=O)NC(C)(C)C(=O)N4CCN(C(=O)C[C@@H](N)CCCN(C)C)CC4)c3Cl)c2n1 [Example 46, N-[2-[4-(3-(S)-Amino-6-dimethylamino-hexanoyl)-piperazin-1-yl]-1,1-dimethyl-2-oxo-ethyl]-2,4-dichloro-3-(2,4-dimethyl-quinolin-8-yloxymethyl)-benzenesulfonamide]	0.501
CC[C@@](C)(NS(=O)(=O)c1ccc(Cl)c(COc2cccc3c(C)cc(C)nc23)c1Cl)C(=O)N1CCN(C(=O)[C@@H](N)CCCCN(C)C)CC1 [Example 61, (R)—N-[1-[4-(2-(S)-Amino-6-dimethylamino-hexanoyl)-piperazine-1-carbonyl]-1-methyl-propyl]-2,4-dichloro-3-(2,4-dimethyl-quinolin-8-yloxymethyl)-benzenesulfonamide tris trifluoroacetate]	0.501
Cc1cc(C)c2cccc(OCc3c(Cl)ccc(S(=O)(=O)NC4(C(=O)N5CCN(C(=O)CCCCCNC(=N)N)CC5)CCCC4)c3Cl)c2n1 [Example 67, N-[1-[4-(6-Guanidino-hexanoyl)-piperazine-1-carbonyl]-cyclopentyl]-2,4-dichloro-3-(2,4-dimethyl-quinolin-8-yloxymethyl)-benzenesulfonamide bis trifluoroacetate]	0.794
CC[C@@](C)(NS(=O)(=O)c1ccc(Cl)c(COc2cccc3c(C)cc(C)nc23)c1Cl)C(=O)N1CCN(C(=O)C[C@@H](N)CCCN)CC1 [Example 72, (R)—N-[4-(3-(S)-Amino-6-amino-hexanoyl)-piperazine-1-carbonyl]-1-methyl-propyl]-2,4-dichloro-3-(2,4-dimethyl-quinolin-8-yloxymethyl)-benzenesulfonamide tris trifluoroacetate]	0.398
CC[C@@](C)(NS(=O)(=O)c1ccc(Cl)c(COc2cccc3c(C)cc(C)nc23)c1Cl)C(=O)N1CCN(C(=O)C[C@@H](N)CCCN(C)C)CC1 [Example 74, (R)—N-[4-(3-(S)-Amino-6-dimethylamino-hexanoyl)-piperazine-1-carbonyl]-1-methyl-propyl]-2,4-dichloro-3-(2,4-dimethyl-quinolin-8-yloxymethyl)-benzenesulfonamide tris trifluoroacetate]	0.794
